The record followed here is the Biogen ADME set (Fang et al. 2023).

In brackets after ≈: the same amount, converted by molar mass. Bounds are passed on as bounds.

For this series the following is noted: for aqueous solubility: pH 6.8.

As usually defined, the aqueous solubility is the dissolved amount per volume that the medium holds. The low end stands for a poorly soluble substance, the high end for a readily soluble substance. Consider `CN(C)C(=O)COc1ccc(N)c(F)c1`, for which the MDR1-MDCK efflux ratio is 0.766; the intrinsic clearance, human liver microsomes was no more than 4.74 mL/min/kg; the intrinsic clearance, rat liver microsomes is no more than 10.7 mL/min/kg; the aqueous solubility worked out at 43.8 µg/mL (≈ 206 µM).

Take `Nc1c(C(=O)NCC2CCCO2)sc(=S)n1-c1ccc(Cl)cc1` (centres undefined): the intrinsic clearance, human liver microsomes was determined as 35.3 mL/min/kg and the intrinsic clearance, rat liver microsomes worked out at 92.3 mL/min/kg.

With `CN(C)[C@@H]1CN(C(=O)c2cc3ccc(F)cc3[nH]2)C[C@H]1O`, the MDR1-MDCK efflux ratio turned out to be 4.4; the intrinsic clearance, human liver microsomes is no more than 4.74 mL/min/kg; the intrinsic clearance, rat liver microsomes came to 121 mL/min/kg; the aqueous solubility came to 55.1 µg/mL (≈ 189 µM).

Consider `CC1=C(C(=O)Nc2cc3cn[nH]c3cc2F)C(c2ccc(C(F)(F)F)cc2)CC(=O)N1` (centres undefined), for which the MDR1-MDCK efflux ratio is 56.3; the intrinsic clearance, human liver microsomes is 51 mL/min/kg; the intrinsic clearance, rat liver microsomes amounted to 120 mL/min/kg.

Turning to `CCOC(=O)Nc1cc(-c2ccc(C)c(NS(C)(=O)=O)c2)nn2c(C)nnc12`, the MDR1-MDCK efflux ratio is 28.4; the intrinsic clearance, human liver microsomes came to 7.01 mL/min/kg; the intrinsic clearance, rat liver microsomes is 124 mL/min/kg; the aqueous solubility is 51.4 µg/mL (≈ 127 µM).

With `Cc1ccnc(-n2nccc2NC(=O)NC2(C)CCC2)c1`, the MDR1-MDCK efflux ratio was found to be 0.579; the intrinsic clearance, human liver microsomes stood at 72.8 mL/min/kg; the intrinsic clearance, rat liver microsomes stood at 931 mL/min/kg.

For the molecule `COc1ccc(Cc2ncnn2-c2ccc3c(c2)OCO3)c(OC)c1`, the MDR1-MDCK efflux ratio turned out to be 0.614; the intrinsic clearance, human liver microsomes was determined as 131 mL/min/kg; the intrinsic clearance, rat liver microsomes was determined as 3040 mL/min/kg; the aqueous solubility was found to be 34.9 µg/mL (≈ 103 µM).

Take `CC(=O)c1c(C)n(S(=O)(=O)c2ccc(C)cc2)c2ccc(NS(=O)(=O)c3ccc(C)cc3)cc12`: the aqueous solubility amounted to 0.53 µg/mL (≈ 1.07 µM).

As to `O=C(Cc1cccc2ccccc12)NCc1ccc(N2CCCC2=O)cc1`, the aqueous solubility was 14.1 µg/mL (≈ 39.4 µM).

In the case of `Cn1cccc(C(=O)NCc2nc(C(C)(C)C)no2)c1=O`, the MDR1-MDCK efflux ratio came out at 1.44; the intrinsic clearance, human liver microsomes is no more than 4.74 mL/min/kg; the intrinsic clearance, rat liver microsomes was found to be 137 mL/min/kg.

For `Cc1ccsc1C(=O)Nc1nc2ccccc2s1`, the MDR1-MDCK efflux ratio worked out at 0.136 and the aqueous solubility worked out at 0.29 µg/mL (≈ 1.06 µM).

For `O=C(Nc1cccc2ncccc12)[C@H]1CCCN(S(=O)(=O)c2ccccc2)C1`, the MDR1-MDCK efflux ratio turned out to be 13; the fraction unbound, human plasma turned out to be 0.167; the fraction unbound, rat plasma worked out at 0.123; the intrinsic clearance, human liver microsomes is 37.9 mL/min/kg. This molecule returned an intrinsic clearance, rat liver microsomes of 545 mL/min/kg.

For the molecule `CCC(=O)NCC[C@@H]1CCc2ccc3c(c21)CCO3`, the MDR1-MDCK efflux ratio turned out to be 0.867; the intrinsic clearance, human liver microsomes amounted to 26.4 mL/min/kg; the intrinsic clearance, rat liver microsomes worked out at 299 mL/min/kg.

In the case of `Cc1ccc(C(=O)N2CCC(Cc3ccccc3-c3ccccc3)(C(=O)N(C)C)CC2)s1`, the MDR1-MDCK efflux ratio amounted to 1.12; the fraction unbound, human plasma came to 0.00509; the fraction unbound, rat plasma is 0.00257; the intrinsic clearance, human liver microsomes was 768 mL/min/kg. This molecule gave an intrinsic clearance, rat liver microsomes of 1520 mL/min/kg and an aqueous solubility of 23.8 µg/mL (≈ 53.3 µM).

Regarding `CSc1cnc(N2CCCN(c3ncc(SC)cn3)CC2)nc1`, the MDR1-MDCK efflux ratio was found to be 0.648; the intrinsic clearance, human liver microsomes is 131 mL/min/kg; the intrinsic clearance, rat liver microsomes is 1850 mL/min/kg.

As for `CN(C)C(=O)c1sc2nc(C3(C)CCN(c4ncccn4)CC3)ccc2c1N`, the MDR1-MDCK efflux ratio is 1.25; the intrinsic clearance, human liver microsomes was 32 mL/min/kg; the intrinsic clearance, rat liver microsomes came out at 111 mL/min/kg; the aqueous solubility is 65.8 µg/mL (≈ 166 µM).

For the molecule `O=C1CN(C(=O)c2ccc(F)cc2)CCN1`, the MDR1-MDCK efflux ratio worked out at 2.27; the intrinsic clearance, human liver microsomes was no more than 4.74 mL/min/kg; the intrinsic clearance, rat liver microsomes is no more than 10.7 mL/min/kg; the aqueous solubility was found to be 47 µg/mL (≈ 212 µM).

On to `CCN1CCc2ncnc(N3CCNc4ccccc4C3)c2C1`, for which the MDR1-MDCK efflux ratio was 1.78; the intrinsic clearance, human liver microsomes is no more than 4.74 mL/min/kg; the intrinsic clearance, rat liver microsomes stood at 105 mL/min/kg; the aqueous solubility came out at 52.1 µg/mL (≈ 168 µM).

For `CN(C)C(=O)c1ccnc(NCc2cccc(C#N)c2)c1`, the MDR1-MDCK efflux ratio was determined as 5.72; the intrinsic clearance, human liver microsomes is no more than 4.74 mL/min/kg; the intrinsic clearance, rat liver microsomes came out at 69 mL/min/kg.

`CCn1cc(C2CCN(Cc3ccc(C#N)cc3)CC2)cn1`: the MDR1-MDCK efflux ratio is 0.45; the intrinsic clearance, human liver microsomes was 12.2 mL/min/kg; the intrinsic clearance, rat liver microsomes is 188 mL/min/kg; the aqueous solubility is 43 µg/mL (≈ 146 µM).

Turning to `CC(C)N(C[C@@H]1O[C@@H](n2cnc3c(N)ncnc32)[C@H](O)[C@H]1O)[C@H]1C[C@@H](CCc2nc3cc(C(C)(C)C)ccc3[nH]2)C1`, the MDR1-MDCK efflux ratio came to 3.45; the intrinsic clearance, human liver microsomes was determined as 146 mL/min/kg; the intrinsic clearance, rat liver microsomes was 835 mL/min/kg.

Take `CC(C(=O)Nc1ccc(C(N)=O)cc1)N1CCCC(c2nc3ccccc3o2)C1` (centres undefined): the MDR1-MDCK efflux ratio was 15.1; the intrinsic clearance, human liver microsomes was 183 mL/min/kg; the intrinsic clearance, rat liver microsomes was 2180 mL/min/kg; the aqueous solubility turned out to be 56.5 µg/mL (≈ 144 µM).

Molecule `CC1(COc2ccc3c(c2)ncn3-c2ccc3cccc(OS(=O)(=O)C(F)(F)F)c3n2)COC1` displayed an aqueous solubility of 0.4 µg/mL (≈ 0.811 µM).

With `O=C(Nc1nc2ccccc2[nH]1)c1cc(Cl)ccc1Cl`, the aqueous solubility was 0.55 µg/mL (≈ 1.8 µM).

For the molecule `Fc1cccc(N2CCCC2)c1CN1CCN(Cc2ccon2)CC1`, the MDR1-MDCK efflux ratio came out at 0.64; the intrinsic clearance, human liver microsomes came out at 60.6 mL/min/kg; the intrinsic clearance, rat liver microsomes worked out at 3460 mL/min/kg.

`CC(=O)NC[C@H]1C[C@]2(C)[C@@H](CCCC[C@]2(C)O)N1CC1(O)CCCCCC1` gave an intrinsic clearance, human liver microsomes of 51.2 mL/min/kg and an intrinsic clearance, rat liver microsomes of 587 mL/min/kg.

As to `N[C@@H]1CCCN(c2c(/C=C3\SC(=O)NC3=O)cccc2-c2ccccc2)C1`, the MDR1-MDCK efflux ratio came to 28.9; the intrinsic clearance, human liver microsomes is 9.01 mL/min/kg; the intrinsic clearance, rat liver microsomes came out at 25.9 mL/min/kg.

On to `CN(CCC#N)Cc1cc(C#N)ccc1F`, for which the intrinsic clearance, human liver microsomes was no more than 4.74 mL/min/kg; the intrinsic clearance, rat liver microsomes was no more than 10.7 mL/min/kg; the aqueous solubility was 31.4 µg/mL (≈ 145 µM).

Turning to `O=C(c1ccccc1-n1cccn1)N1CCN(Cc2cccnc2)CC1`, the MDR1-MDCK efflux ratio stood at 19.3; the intrinsic clearance, human liver microsomes was 56 mL/min/kg; the intrinsic clearance, rat liver microsomes came to 605 mL/min/kg; the aqueous solubility was determined as 54.4 µg/mL (≈ 157 µM).

In the case of `Cc1cc2occ(CC(=O)NC3CCN(C)CC3)c2cc1C(C)C`, the MDR1-MDCK efflux ratio is 6.32; the intrinsic clearance, human liver microsomes was determined as 13.9 mL/min/kg; the intrinsic clearance, rat liver microsomes worked out at 407 mL/min/kg; the aqueous solubility came to 34.4 µg/mL (≈ 105 µM).

On to `O=C(CN1CCCC(c2ccc3cn[nH]c3n2)C1)N1CCCC1` (centres undefined), for which the MDR1-MDCK efflux ratio was determined as 30.2; the intrinsic clearance, human liver microsomes was 9.13 mL/min/kg; the intrinsic clearance, rat liver microsomes came out at 337 mL/min/kg; the aqueous solubility is 38 µg/mL (≈ 121 µM).

`Cc1ccccc1N1C(=O)c2ccc(C(=O)NC(C)(C)C)cc2C1=O` returned an aqueous solubility of 49.9 µg/mL (≈ 148 µM).

Turning to `N#Cc1ccc(NS(=O)(=O)c2c[nH]c3nc(Cl)ccc23)c(F)c1`, the MDR1-MDCK efflux ratio amounted to 6.41; the intrinsic clearance, human liver microsomes is no more than 4.74 mL/min/kg; the aqueous solubility is 13.1 µg/mL (≈ 37.3 µM).

Turning to `N#CCCCN1CCC(c2c[nH]c3ccccc23)CC1`, the MDR1-MDCK efflux ratio came out at 0.46; the intrinsic clearance, human liver microsomes turned out to be 23.8 mL/min/kg; the intrinsic clearance, rat liver microsomes was 1730 mL/min/kg; the aqueous solubility worked out at 54.6 µg/mL (≈ 204 µM).

`Cc1ccnc(NC(=O)CN(C)c2ncnc3sc4c(c23)CCC(C)C4)c1` (centres undefined) returned an aqueous solubility of 3.88 µg/mL (≈ 10.2 µM).

Regarding `CCS(=O)(=O)Cc1ccn(-c2cccc(F)c2)n1`, the MDR1-MDCK efflux ratio worked out at 0.632; the intrinsic clearance, human liver microsomes was no more than 4.74 mL/min/kg; the intrinsic clearance, rat liver microsomes came to 38.7 mL/min/kg; the aqueous solubility came to 49.2 µg/mL (≈ 183 µM).

`Fc1ccc(-n2nc(C3CCOCC3)nc2-c2cn[nH]c2)c(F)c1`: the MDR1-MDCK efflux ratio was 19.6; the intrinsic clearance, human liver microsomes was no more than 4.74 mL/min/kg; the intrinsic clearance, rat liver microsomes turned out to be 62.7 mL/min/kg; the aqueous solubility is 25.9 µg/mL (≈ 78.1 µM).

With `Cc1ccc2occ(CN3C[C@H]4CCCN4C[C@H]3C)c(=O)c2c1`, the MDR1-MDCK efflux ratio is 0.849; the intrinsic clearance, human liver microsomes turned out to be 24 mL/min/kg; the intrinsic clearance, rat liver microsomes stood at 956 mL/min/kg.

Consider `N#Cc1cc(Oc2ccc3c(c2)CCC3)ncn1`, for which the MDR1-MDCK efflux ratio amounted to 0.408; the intrinsic clearance, human liver microsomes was 66.7 mL/min/kg; the intrinsic clearance, rat liver microsomes worked out at 283 mL/min/kg.

Turning to `Cn1c(NC(=O)c2ccn(COc3ccccc3)n2)nc2ccccc21`, the aqueous solubility amounted to 5.8 µg/mL (≈ 16.7 µM).

Turning to `Cc1nnc(NCC(=O)N2CCc3sccc3C2)c(C#N)c1C`, the MDR1-MDCK efflux ratio is 1.31; the intrinsic clearance, human liver microsomes was 17.3 mL/min/kg; the intrinsic clearance, rat liver microsomes was 267 mL/min/kg; the aqueous solubility stood at 35.8 µg/mL (≈ 109 µM).

Take `COc1ccc(CC(=O)N2CCc3[nH]c4ccc(Cl)cc4c3C2)cc1OC`: the MDR1-MDCK efflux ratio is 6.37; the intrinsic clearance, human liver microsomes came to 120 mL/min/kg; the intrinsic clearance, rat liver microsomes came to 675 mL/min/kg; the aqueous solubility came to 6.7 µg/mL (≈ 17.4 µM).

As to `Cc1ccc(=O)n(CCOc2ccc(Cl)c(F)c2)n1`, the MDR1-MDCK efflux ratio came out at 0.684; the intrinsic clearance, human liver microsomes came to 71.2 mL/min/kg; the intrinsic clearance, rat liver microsomes was found to be 631 mL/min/kg.

`CCc1nc2ccccc2n1CC(=O)N1CCNC(=O)C1`: the MDR1-MDCK efflux ratio stood at 3.86; the intrinsic clearance, human liver microsomes is no more than 4.74 mL/min/kg; the intrinsic clearance, rat liver microsomes was no more than 10.7 mL/min/kg; the aqueous solubility was determined as 50.6 µg/mL (≈ 177 µM).

In the case of `CC(C)(C)c1cc(NC(=O)c2cccc3cn[nH]c23)[nH]n1`, the MDR1-MDCK efflux ratio is 1.55; the intrinsic clearance, human liver microsomes worked out at 9.85 mL/min/kg; the intrinsic clearance, rat liver microsomes was 176 mL/min/kg; the aqueous solubility was found to be 1.78 µg/mL (≈ 6.28 µM).

In the case of `CCCn1cc(CNc2ncccn2)cn1`, the intrinsic clearance, human liver microsomes was no more than 4.74 mL/min/kg and the intrinsic clearance, rat liver microsomes came to 56.5 mL/min/kg.

For `CC(C)n1cnnc1SCOCc1ccccc1`, the MDR1-MDCK efflux ratio is 0.711; the intrinsic clearance, human liver microsomes is no more than 4.74 mL/min/kg; the intrinsic clearance, rat liver microsomes was 219 mL/min/kg.

As to `CCC(=O)Nc1cccc(C(=O)N2CCN(C)Cc3ccccc32)c1`, the MDR1-MDCK efflux ratio came to 41.5 and the aqueous solubility is 0.2 µg/mL (≈ 0.593 µM).
